Drawing on patent publication US20030176436A1, “Novel heterocyclic compounds as selective bacterial DHFR inhibitors and their uses thereof” (priority 2001, published 2003), this text covers Ki and MIC for eight molecules.

Structures are written as SMILES. ≈ marks a conversion by molar mass, not a printed value. Read-outs that look alike come from different tables or passages of the source.

One assay has as its target T1, human DHFR (hDHFR) (Homo sapiens, UniProt P00374).
T1 construct: result in the amplification of a 186 amino acid hDHFR coding region; made in house; host or cells: E. coli Top10
T1 sequence (P00374 1-187): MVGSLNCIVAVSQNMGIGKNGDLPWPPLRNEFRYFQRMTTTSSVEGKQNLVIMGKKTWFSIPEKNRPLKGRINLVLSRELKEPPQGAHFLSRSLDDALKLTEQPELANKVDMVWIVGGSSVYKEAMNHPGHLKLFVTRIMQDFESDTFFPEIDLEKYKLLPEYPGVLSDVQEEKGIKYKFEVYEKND
As to the kind of experiment: DHFR enzyme assay, Ki determination, human DHFR. The format is biochemical. The settings on record: Table 3. The method, then: The human DHFR cDNA was cloned by PCR from the Human Universal Quick-clone™ cDNA purchased from Clontech.
The PCR fragment was digested with restriction enzymes NdeI and HindIII, and then ligated into a derivative of the pKK223-3 expression vector (Amersham Pharmacia). The final expression vector (pFW96.2) was transformed into E. coli Top10 F40 and hDHFR protein was induced by the addition of 1 mM IPTG followed by incubation at 37° C. for 4 hrs. Recombinant human DHFR was purified based on a previously published procedure (2).
(§1) Dihydrofolic acid and NADPH were purchased from Sigma. Enzyme assays were adapted for microtitre format from a previously published procedure (2, 3). All assays were performed in a 250 μl volume in 96-well microtitre plates. Typical assays consisted of 20 nM DHFR (human or E. coli), 100 μM NADPH, and 50 μM dihydrofolic acid in 100 mM HEPES pH 8, 10 mM KCl, and 10 mM MgCl2. The assay was monitored spectrophotometrically for the conversion of NADPH to NADP+, which results in a decrease in absorbance at 340 nm.
Five microliters of inhibitor compound in DMSO was added to 120 μl of enzyme solution (40 nM DHFR and 200 μM NADPH). The reaction was initiated by the addition of 125 μl of 100 μM dihydrofolic acid. The final concentrations in the assay were 20 nM DHFR, 100 μM NADPH, 50 μM dihydrofolic acid, and a range of 500 μM to 20 nM inhibitor compound. The final DMSO concentration was 2% of the total volume. Reactions were monitored as described above.
V=(Vmax[S])/(Km(1+I/Ki)+[S]), where S=dihydrofolate, Km=Michaelis constant for dihydrofolate, I=inhibitor concentration.

Another assay deals with T2, bacterial DHFR (bDHFR) (Escherichia coli, UniProt P0ABQ4).
T2 construct: gift of Eric Brown, McMaster University
As to the kind of experiment: DHFR enzyme assay, Ki determination, bacterial DHFR. The format is biochemical, E. coli. As for the experimental part:
Human and Bacterial DHFR: E. coli DHFR was kindly provided by Eric Brown of MacMaster University.
as §1
The reaction was initiated by the addition of 125 μl of 100 μM dihydrofolic acid. The final concentrations in the assay were 20 nM DHFR, 100 μM NADPH, 50 μM dihydrofolic acid, and a range of 500 μM to 20 nM inhibitor compound. The final DMSO concentration was 2% of the total volume. Reactions were monitored as described above.

A further assay relates to H. influenzae. As to the kind of experiment: Microdilution antimicrobial susceptibility test (MIC). The format is cell-based. Conditions: Haemophilus influenzae; Table 2; 90% inhibition of growth; read-out: MIC H. influenzae. As for the experimental part:
(§2) Stock solutions of tested compounds were prepared in N,N-dimethylformamide (DMF) at a concentration of 5 mg/mL. Working solutions of the tested compounds were then prepared from the stock solutions, in Mueller-Hinton broth (MHB) with a starting concentration of 64 μg/mL.
(§3) Bacterial inocula were prepared from overnight culture (i.e., one fresh colony from agar plate in 5 ml MHB; H. influenzae was grown in MHB with the addition of yeast extract, haematin, and NAD), centrifuged 2×5 min/3000 rpm (for S. pneumoniae and H. influenzae, 2×10 min/3000 rpm), and dispensed in 5 ml of fresh MHB each time, such that the bacterial suspension is diluted to obtain 100 colony forming units (cfu) in a microplate well (100 μl total volume).
(§4) Microplate wells were filled with two-fold dilutions of test compound (50 μl), starting with 64 μg/ml. Wells were then filled with 50 μl of bacterial inoculum (final volume: 100 μl/well). The plates were incubated at 37° C. for 18-24 hours (S. pneumoniae was grown in a CO2-enriched atmosphere).
A general note: Dilution methods test growth across graded concentrations, often in twofold steps.

In the next assay the test system is E. faecalis. The assay is described as above. The class given is cell-based. Conditions: Enterococcus faecalis; Table 2; 90% inhibition of growth. The method, then: as §2, §3, §4
A further assay deals with P. aeruginosa. The assay is described as above. The class given is cell-based. The settings on record: Pseudomonas aeruginosa; Table 2; 90% inhibition of growth. The method, then: as §2, §3, §4
The subject of another assay is E. coli. Described as above. The class given is cell-based. The settings on record: Escherichia coli; Table 2; 90% inhibition of growth. As for the experimental part:
as §2, §3, §4

Another assay deals with M. catarrhalis. The assay is described as above. The format is cell-based. Conditions: Moraxella catarrhalis; Table 2; 90% inhibition of growth. The method, then:
as §2, §3, §4

Another assay has as its system S. pneumoniae. The assay is described as above. The format is cell-based. The settings on record: Streptococcus pneumoniae; Table 2; 90% inhibition of growth. As for the experimental part: as §2, §3, §4
The subject of the next assay is S. aureus. Described as above. The class given is cell-based. The settings on record: Staphylococcus aureus. As for the experimental part:
as §2, §3, §4

The test system of the next assay is S. cerevisiae. Kind of assay: Microdilution susceptibility test (MIC), yeast as indicator of cytotoxicity. The settings on record: Saccharomyces cerevisiae; Table 2; 90% inhibition of growth. The format is cell-based.
Description: The following table of compounds of one aspect of the invention have potent antimicrobial activity against S. aureus bacteria and are anticipated to have physical-chemical properties similar to those of orally absorbed and bioavailable drugs and drug-like compounds. Antibacterial activity for a variety of bacterial species are shown (S. aureus, S. pneumoniae, E. faecalis, M. catarrhalis, and H. influenzae). The yeast cell (S. cerevisiae) in this panel of organisms is an indicator of potential cytotoxicity in mammalian cells.
as §2, §4

Setting [1] is: Table 2, 90% inhibition of growth, read-out: MIC S. aureus.

Take `CN(Cc1cnc2nc(N)nc(N)c2n1)c1ccc(C(=O)NCc2ccccn2)cc1` [Compound 3]: the Ki on human DHFR (hDHFR) is 1 to 5 µM; on bacterial DHFR (bDHFR) (Table 3, read-out: bDHFR Ki) it was under 0.1 µM. For the same molecule, the MIC in the assay with H. influenzae was 2 to 8 µg/mL (≈ 4.81 to 19.3 µM); in the assay on E. faecalis it was 2 to 8 µg/mL (≈ 4.81 to 19.3 µM); against P. aeruginosa, over 64 µg/mL; against E. coli, over 64 µg/mL; with M. catarrhalis it was 2 to 8 µg/mL (≈ 4.81 to 19.3 µM); in the assay with S. pneumoniae, 2 to 8 µg/mL (≈ 4.81 to 19.3 µM). Besides, the MIC in the assay with S. aureus (setting [1]) was 2 to 8 µg/mL (≈ 4.81 to 19.3 µM); in the assay with S. cerevisiae, over 64 µg/mL.
`CN(Cc1cnc2nc(N)nc(N)c2n1)c1cccc([N+](=O)[O-])c1` [Compound 14]: the Ki is over 5 µM on human DHFR (hDHFR) and under 0.1 µM at bacterial DHFR (bDHFR) (Table 3, read-out: bDHFR Ki). Besides, the MIC with H. influenzae is under 2 µg/mL; against E. faecalis, under 2 µg/mL; against P. aeruginosa, over 64 µg/mL; against E. coli it was over 64 µg/mL; against M. catarrhalis, under 2 µg/mL; against S. pneumoniae, under 2 µg/mL. For the same molecule, the results for the MIC with S. aureus (setting [1]) and against S. cerevisiae were under 2 µg/mL and over 64 µg/mL, respectively.
With `Nc1nc(N)c2nc(CNc3ccc(F)c([N+](=O)[O-])c3)cnc2n1` [Compound 15], the Ki was over 5 µM on human DHFR (hDHFR) and 0.1 to 0.499 µM on bacterial DHFR (bDHFR) (Table 3, read-out: bDHFR Ki). Moreover, the MIC with H. influenzae is under 2 µg/mL; in the assay with E. faecalis, under 2 µg/mL; in the assay on P. aeruginosa it was over 64 µg/mL; in the assay with E. coli, over 64 µg/mL; against M. catarrhalis, under 2 µg/mL; against S. pneumoniae, under 2 µg/mL. Moreover, the MIC in the assay on S. aureus (setting [1]) is under 2 µg/mL; with S. cerevisiae, 2 to 8 µg/mL (≈ 6.06 to 24.2 µM).
For `Nc1nc(N)c2nc(CNc3ccccc3)cnc2n1` [Compound 6], the Ki was over 5 µM at human DHFR (hDHFR) and 1 to 5 µM on bacterial DHFR (bDHFR) (Table 3, read-out: bDHFR Ki). In addition, the MIC was 2 to 8 µg/mL (≈ 7.48 to 29.9 µM) in the assay on H. influenzae; 2 to 8 µg/mL (≈ 7.48 to 29.9 µM) against E. faecalis; over 64 µg/mL in the assay with P. aeruginosa; over 64 µg/mL against E. coli; 2 to 8 µg/mL (≈ 7.48 to 29.9 µM) with M. catarrhalis; 2 to 8 µg/mL (≈ 7.48 to 29.9 µM) against S. pneumoniae. Moreover, the MIC in the assay with S. aureus (setting [1]) is 2 to 8 µg/mL (≈ 7.48 to 29.9 µM); against S. cerevisiae, over 64 µg/mL.
In the case of `CN(Cc1cnc2nc(N)nc(N)c2n1)c1ccc(C(=O)Nc2ccc(O)cc2)cc1` [Compound 1], the Ki at human DHFR (hDHFR) is 0.5 to 0.999 µM; on bacterial DHFR (bDHFR) (Table 3, read-out: bDHFR Ki), under 0.1 µM. The MIC is 2 to 8 µg/mL (≈ 4.8 to 19.2 µM) in the assay on H. influenzae; 16 to 64 µg/mL (≈ 38.4 to 154 µM) with E. faecalis; over 64 µg/mL in the assay with P. aeruginosa; over 64 µg/mL with E. coli; 2 to 8 µg/mL (≈ 4.8 to 19.2 µM) in the assay on M. catarrhalis; under 2 µg/mL with S. pneumoniae. The MIC in the assay with S. aureus (setting [1]) is 16 to 64 µg/mL (≈ 38.4 to 154 µM); in the assay on S. cerevisiae, over 64 µg/mL.
On to `Nc1nc(N)c2nc(COc3cc([N+](=O)[O-])ccc3N)cnc2n1` [Compound 13], for which the Ki was over 5 µM on human DHFR (hDHFR) and 0.5 to 0.999 µM on bacterial DHFR (bDHFR) (Table 3, read-out: bDHFR Ki).
In the case of `Nc1nc(N)c2cnc(NCc3ccc(Oc4ccc(F)cc4)cc3)nc2n1` [Compound 66], the Ki on human DHFR (hDHFR) was over 500 µM; at bacterial DHFR (bDHFR) (Table 3, read-out: bDHFR Ki), under 1 µM.
`C[C@H](c1cccc2ccccc12)N(C)c1ncc2c(N)nc(N)nc2n1` [Compound 22]: the Ki is over 75 µM at human DHFR (hDHFR); under 0.002 µM at bacterial DHFR (bDHFR) (Table 3, read-out: bDHFR Ki); 0.002 µM at bacterial DHFR (bDHFR) (average, read-out: bDHFR Ki/(μM) avg). Moreover, the MIC in the assay on S. aureus (MIC, average, read-out: S. aureus (μg/ml) avg) was under 0.125 µg/mL.
